The results in this text go back to patent US8686002B2, “Heterocyclic compounds and their use as binding partners for 5-HT5 receptors” (AbbVie Deutschland GmbH & Co. KG, priority 2005, dated 2014).

As a reminder, the pKi is −log10 of the Ki, conventionally taken in molar units. A lower pKi goes with a large Ki.

pKi: −log10 of the molar value. Counter-ions that a name gives are not always drawn.

5-HT5A, sequence (P47898 whole entry): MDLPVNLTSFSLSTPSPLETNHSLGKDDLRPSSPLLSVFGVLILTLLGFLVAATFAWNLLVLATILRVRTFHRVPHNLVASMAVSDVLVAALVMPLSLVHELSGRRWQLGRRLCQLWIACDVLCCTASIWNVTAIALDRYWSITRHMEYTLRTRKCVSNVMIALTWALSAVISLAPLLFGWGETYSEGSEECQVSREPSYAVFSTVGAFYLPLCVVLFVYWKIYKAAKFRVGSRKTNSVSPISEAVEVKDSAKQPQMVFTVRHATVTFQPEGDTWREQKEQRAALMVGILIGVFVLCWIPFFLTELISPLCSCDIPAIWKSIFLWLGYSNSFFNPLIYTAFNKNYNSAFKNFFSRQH

This assay concerns the target 5-HT5A (Homo sapiens, UniProt P47898). The assay is described as follows: Affinity of selected compounds for 5-HT5A (Ki). The assay is classed as binding. As to the method: In both assays, different concentrations of the test substances are used and the Ki and IC50 values are determined.
For the compound `NC1=Nc2ccccc2CN1Cc1cccc2c1OCC2` [Example 68, 3-(2,3-Dihydro-1-benzofuran-7-ylmethyl)-3,4-dihydroquinazolin-2-amine hydrochloride], the pKi is more than 6.52.
Then `COc1cccc(F)c1Cc1cc2ccccc2nc1N` [Example 29, 3-(2-Fluoro-6-methoxybenzyl)quinolin-2-amine], with more than 6.52; and `COc1cccc(OC)c1CN1Cc2ccccc2N=C1N` [Example 63, 3-(2,6-Dimethoxybenzyl)-3,4-dihydroquinazolin-2-amine acetate], with more than 6.52; and `COc1cccc(OC)c1CN1Cc2ccccc2N=C1NCc1cccc2ccccc12` [Example 93, 3-(2,6-Dimethoxybenzyl)-N-(1-naphthylmethyl)-3,4-dihydroquinazolin-2-amine hydrochloride], with more than 5.00.
As for `COc1ccccc1Cc1cc2ccc(N(C)C)cc2nc1N` [Example 28, 3-(2-Methoxybenzyl)-N^7,N^7-dimethylquinolin-2,7-diamine], the figure is more than 6.52; as for `COc1cccc(OC)c1CN1Cc2ccc(Cl)cc2N=C1N` [Example 90, 7-Chloro-3-(2,6-dimethoxybenzyl)-3,4-dihydroquinazolin-2-amine], more than 6.52; as for `COc1cccc(OC)c1CN1Cc2ccccc2N=C1NC1CCCCCC1` [Example 92, N-Cycloheptyl-3-(2,6-dimethoxybenzyl)-3,4-dihydroquinazolin-2-amine hydrochloride], more than 6.52.
Then `COc1ccccc1Cc1cc2ccc(F)cc2nc1N` [Example 39, 7-Fluoro-3-(2-methoxybenzyl)quinolin-2-amine], with more than 6.52.
Turning to `CC(C)Oc1ccccc1Cc1cc2ccccc2nc1N` [Example 54, 3-(2-Isopropoxybenzyl)quinolin-2-amine hydrochloride], the pKi was more than 6.52.
As for `CCCCNC1=Nc2ccccc2CN1Cc1ccccc1OC` [Example 76, 2-(Butylamino)-3-(2-methoxybenzyl)-3,4-dihydroquinazoline hydrochloride], the figure is more than 5.00; as for `COc1ccc2cc(Cc3ccccc3OC)c(N)nc2c1` [Example 6, 7-Methoxy-3-(2-methoxybenzyl)quinolin-2-amine], more than 6.52.
As for `CCOc1ccccc1Cc1cc2ccccc2nc1N` [Example 55, 3-(2-Ethoxybenzyl)quinolin-2-amine hydrochloride], the figure is more than 6.52.
As for `COc1ccc2nc(N)c(Cc3ccccc3OC)cc2c1` [Example 7, 6-Methoxy-3-(2-methoxybenzyl)quinolin-2-amine], the figure is more than 6.52; as for `CCOc1cccc(F)c1Cc1cc2ccccc2nc1N` [Example 59, 3-(2-Ethoxy-6-fluorobenzyl)quinolin-2-amine hydrochloride], more than 6.52.
For `COc1ccccc1Cc1cc2ccccc2nc1N` [Example 1, 3-(2-Methoxybenzyl)quinolin-2-amine], the pKi was more than 6.52.
The compound `COc1cccc(OC)c1Cc1cc2ccncc2nc1N` [Example 37, 3-(2,6-Dimethoxybenzyl)-1,7-naphthyridin-2-amine] gave a pKi of more than 6.52.
As for `COc1cc2cc(Cc3c(OC)cccc3OC)c(N)nc2cc1OC` [Example 13, 3-(2,6-Dimethoxybenzyl)-6,7-dimethoxy-quinolin-2-amine], the figure is more than 6.52.
As for `COc1cccc(Cl)c1Cc1cc2ncccc2nc1N` [Example 58, 3-(2-Chloro-6-methoxybenzyl)-1,5-naphthyridin-2-amine], the figure is more than 6.52; as for `COc1ccccc1Cc1cc2cccnc2nc1N` [Example 34, 3-(2-Methoxybenzyl)-1,8-naphthyridin-2-amine], more than 5.00.
Then `COc1cccc(F)c1Cc1cc2ncccc2nc1N` [Example 47, 3-(2-Fluoro-6-methoxybenzyl)-1,5-naphthyridin-2-amine], with more than 6.52; and `COc1ccccc1CN1Cc2ccccc2N=C1NC1Cc2ccccc2C1` [Example 74, N-(2,3-Dihydro-1H-inden-2-yl)-3-(2-methoxybenzyl)-3,4-dihydroquinazolin-2-amine acetate], with more than 6.52.
As for `COc1cccc(OC)c1Cc1cc2cnccc2nc1N` [Example 22, 3-(2,6-Dimethoxybenzyl)-1,6-naphthyridin-2-amine], the pKi is more than 6.52.
As for `COc1ccccc1Cc1cc2cc(OC)c(OC)cc2nc1N` [Example 16, 6,7-Dimethoxy-3-(2-methoxybenzyl)quinolin-2-amine], the figure is more than 6.52; as for `CCOc1ccc2nc(N)c(Cc3ccccc3OC)cc2c1` [Example 31, 6-Ethoxy-3-(2-methoxybenzyl)quinolin-2-amine], more than 6.52.
`COc1cccc(OC)c1Cc1cc2cccnc2nc1N` [Example 21, 3-(2,6-Dimethoxybenzyl)-1,8-naphthyridin-2-amine] gave a pKi of more than 5.00.
Then `COc1ccc(-c2ccc3c(c2)N=C(N)N(Cc2c(OC)cccc2OC)C3)cc1` [Example 83, 3-(2,6-Dimethoxybenzyl)-7-(4-methoxyphenyl)-3,4-dihydroquinazolin-2-aminium acetate], with more than 5.00.
As for `COc1cccc(O)c1Cc1cc2ccccc2nc1N` [Example 2, 2-[(2-Aminoquinolin-3-yl)methyl]-3-methoxyphenol], the figure is more than 6.52.
Regarding `COc1cccc(F)c1Cc1cc2ccc(Cl)cc2nc1N` [Example 26, 7-Chloro-3-(2-fluoro-6-methoxybenzyl)quinolin-2-amine], the pKi was more than 6.52.
On to `COc1cccc(F)c1Cc1cc2cc3c(cc2nc1N)OCO3` [Example 17, 7-(2-Fluoro-6-methoxybenzyl)[1.3]dioxolo[4.5-g]quinolin-6-amine], for which the pKi is more than 6.52.
In turn, `COc1ccc2c(c1)CN(Cc1ccccc1OC)C(N)=N2` [Example 101, 6-Methoxy-3-(2-methoxybenzyl)-3,4-dihydroquinazolin-2-amine] gave a pKi of more than 6.52.
Then `COc1ccccc1CN1Cc2ccccc2N=C1NO` [Example 73, 2-(Hydroxyamino)-3-(2-methoxybenzyl)-3,4-dihydroquinazoline], with more than 5.00; and `CN(C)CCOc1cccc(F)c1Cc1cc2ccccc2nc1N` [Example 60, 3-{2-[2-(Dimethylamino)ethoxy]-6-fluorobenzyl}quinolin-2-amine bishydrochloride], with more than 6.52; and `COc1ccccc1CN1Cc2ccccc2N=C1NCCc1ccccc1` [Example 97, [3-(2-Methoxybenzyl)-3,4-dihydroquinazolin-2-yl]phenethylamine hydrochloride], with more than 5.00.
As for `COc1cccc(Cl)c1Cc1cc2ccc(Cl)cc2nc1N` [Example 27, 7-Chloro-3-(2-chloro-6-methoxybenzyl)quinolin-2-amine], the figure is more than 6.52; as for `COc1cccc(OC)c1CN1Cc2ccc(-c3cccnc3)cc2N=C1N` [Example 85, 3-(2,6-Dimethoxybenzyl)-7-pyridin-3-yl-3,4-dihydroquinazolin-2-aminium acetate], more than 6.52.
Then `COc1cccc(OC)c1Cc1cc2cc3c(cc2nc1N)OCO3` [Example 12], with more than 6.52; and `Nc1nc2ccccc2cc1Cc1ccccc1OC(F)(F)F` [Example 53, 3-[2-(Trifluoromethoxy)benzyl]quinolin-2-amine], with more than 6.52.
As for `COc1ccccc1Cc1cc2ccncc2nc1N` [Example 36, 3-(2-Methoxybenzyl)-1,7-naphthyridin-2-amine], the pKi was more than 6.52.
`COc1cccc(OC)c1CN1Cc2ccccc2N=C1NCc1ccccc1` [Example 95, N-Benzyl-3-(2,6-dimethoxybenzyl)-3,4-dihydroquinazolin-2-amine hydrochloride]: the pKi is more than 5.00.
As for `COc1cccc(Cl)c1Cc1cc2ccccc2nc1N` [Example 30, 3-(2-Chloro-6-methoxybenzyl)quinolin-2-amine], the figure is more than 6.52; as for `COc1cccc(F)c1Cc1cc2cc(N3CCN(C)CC3)ccc2nc1N` [Example 49, 3-(2-Fluoro-6-methoxybenzyl)-6-(4-methylpiperazin-1-yl)quinolin-2-aminomonofumarate], more than 6.52; as for `COc1ccccc1CN1Cc2ccccc2N=C1NCC(C)C` [Example 77, 2-(Isobutylamino)-3-(2-methoxybenzyl)-3,4-dihydroquinazoline acetate], more than 5.00.
As for `COc1cccc(OC)c1Cc1cc2cc(Cl)ccc2nc1N` [Example 9, 6-Chloro-3-(2,6-dimethoxybenzyl)quinolin-2-amine], the figure is more than 6.52.
Then `COc1cccc(OC)c1CN1Cc2ccc(-c3cccs3)cc2N=C1N` [Example 86, 3-(2,6-Dimethoxybenzyl)-7-(2-thienyl)-3,4-dihydroquinazolin-2-aminium acetate], with more than 6.52; and `COc1cccc(OC)c1Cc1cc2ccccc2nc1N` [Example 3, 3-(2,6-Dimethoxybenzyl)quinolin-2-amine], with more than 6.52; and `COc1cccc(OC)c1Cc1cc2cccc(OC)c2nc1N` [Example 52, 3-(2,6-Dimethoxybenzyl)-8-methoxyquinolin-2-amine hydrochloride], with more than 6.52.
For the compound `COc1ccccc1Cc1cc2cc(N3CCOCC3)ccc2nc1N` [Example 44, 3-(2-Methoxybenzyl)-6-morpholin-4-ylquinolin-2-amine], the pKi was more than 6.52.
